Data from ChEMBL document CHEMBL1140508, “Novel C2-purine position analogs of nitrobenzylmercaptopurine riboside as human equilibrative nucleoside transporter 1 inhibitors” (Bioorg Med Chem, 2007).

target: T1, Equilibrative nucleoside transporter 1 (Homo sapiens, UniProt Q99808); assay: Displacement of SAENTA-fluorescein from human ENT1 in K562 cells after 45 mins by flow cytometry; assay type: cell-based
T1 sequence (Q99808 whole entry): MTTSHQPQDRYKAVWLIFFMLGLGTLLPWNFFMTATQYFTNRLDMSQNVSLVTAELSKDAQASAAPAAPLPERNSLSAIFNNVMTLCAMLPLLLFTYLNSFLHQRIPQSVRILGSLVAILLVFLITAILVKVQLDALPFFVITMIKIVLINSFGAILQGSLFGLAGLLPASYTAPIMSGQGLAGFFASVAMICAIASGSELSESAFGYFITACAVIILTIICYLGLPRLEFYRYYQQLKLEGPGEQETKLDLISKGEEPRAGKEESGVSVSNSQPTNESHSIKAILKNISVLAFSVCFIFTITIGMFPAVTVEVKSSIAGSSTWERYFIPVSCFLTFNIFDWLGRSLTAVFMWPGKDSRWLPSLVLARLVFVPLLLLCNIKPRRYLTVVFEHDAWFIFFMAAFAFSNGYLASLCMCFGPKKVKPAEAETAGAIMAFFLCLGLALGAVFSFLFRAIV

Row | Compound | Ki [µM]
1 | O=[N+]([O-])c1ccc(CSc2nc(F)nc3c2ncn3[C@@H]2O[C@H](CO)[C@@H](O)[C@H]2O)cc1 | 0.0021
2 | CCCNc1nc(SCc2ccc([N+](=O)[O-])cc2)c2ncn([C@@H]3O[C@H](CO)[C@@H](O)[C@H]3O)c2n1 | 0.193
3 | CN(C)c1nc(SCc2ccc([N+](=O)[O-])cc2)c2ncn([C@@H]3O[C@H](CO)[C@@H](O)[C@H]3O)c2n1 | 0.429
4 | O=[N+]([O-])c1ccc(CSc2nc(NC3CCC3)nc3c2ncn3[C@@H]2O[C@H](CO)[C@@H](O)[C@H]2O)cc1 | 0.033
5 | CCCCCNc1nc(SCc2ccc([N+](=O)[O-])cc2)c2ncn([C@@H]3O[C@H](CO)[C@@H](O)[C@H]3O)c2n1 | 0.357
6 | O=[N+]([O-])c1ccc(CSc2nc(NC3CCCCC3)nc3c2ncn3[C@@H]2O[C@H](CO)[C@@H](O)[C@H]2O)cc1 | 0.4
7 | O=[N+]([O-])c1ccc(CSc2nc(Cl)nc3c2ncn3[C@@H]2O[C@H](CO)[C@@H](O)[C@H]2O)cc1 | 0.011
8 | O=[N+]([O-])c1ccc(CSc2nc(NCCO)nc3c2ncn3[C@@H]2O[C@H](CO)[C@@H](O)[C@H]2O)cc1 | 0.086
9 | O=[N+]([O-])c1ccc(CSc2nc(N(CCO)CCO)nc3c2ncn3[C@@H]2O[C@H](CO)[C@@H](O)[C@H]2O)cc1 | 0.243
10 | O=[N+]([O-])c1ccc(CSc2nc(Br)nc3c2ncn3[C@@H]2O[C@H](CO)[C@@H](O)[C@H]2O)cc1 | 0.011
11 | CC(=O)Nc1nc(SCc2ccc([N+](=O)[O-])cc2)c2ncn([C@@H]3O[C@H](CO)[C@@H](O)[C@H]3O)c2n1 | 0.034
12 | O=C(Nc1nc(SCc2ccc([N+](=O)[O-])cc2)c2ncn([C@@H]3O[C@H](CO)[C@@H](O)[C@H]3O)c2n1)c1ccccc1 | 0.315
13 | O=[N+]([O-])c1ccc(CSc2nc(NCc3ccccc3)nc3c2ncn3[C@@H]2O[C@H](CO)[C@@H](O)[C@H]2O)cc1 | 0.247
14 | CNc1nc(SCc2ccc([N+](=O)[O-])cc2)c2ncn([C@@H]3O[C@H](CO)[C@@H](O)[C@H]3O)c2n1 | 0.024
15 | O=[N+]([O-])c1ccc(CSc2nc(NC3CC3)nc3c2ncn3[C@@H]2O[C@H](CO)[C@@H](O)[C@H]2O)cc1 | 0.025
16 | CCCCNc1nc(SCc2ccc([N+](=O)[O-])cc2)c2ncn([C@@H]3O[C@H](CO)[C@@H](O)[C@H]3O)c2n1 | 0.325
17 | O=[N+]([O-])c1ccc(CSc2nc(NC3CCCC3)nc3c2ncn3[C@@H]2O[C@H](CO)[C@@H](O)[C@H]2O)cc1 | 0.125
18 | O=[N+]([O-])c1ccc(CSc2nc(I)nc3c2ncn3[C@@H]2O[C@H](CO)[C@@H](O)[C@H]2O)cc1 | 0.011
19 | CCNc1nc(SCc2ccc([N+](=O)[O-])cc2)c2ncn([C@@H]3O[C@H](CO)[C@@H](O)[C@H]3O)c2n1 | 0.024
20 | Nc1nc(SCc2ccc([N+](=O)[O-])cc2)c2ncn([C@@H]3O[C@H](CO)[C@@H](O)[C@H]3O)c2n1 | 0.0011
21 | O=[N+]([O-])c1ccc(CSc2nc(NCCc3ccccc3)nc3c2ncn3[C@@H]2O[C@H](CO)[C@@H](O)[C@H]2O)cc1 | 0.394
